≈ marks a conversion by molar mass, not a printed value.
How the values were obtained:
[1] = Drug metabolism in rat liver microsome assessed as reduction of aldehyde group at 10 mM measured after 15 mins in presence of NADPH by LC-MS analysis; assay type: ADME; details: microsomes, 10000 µM
[2] = Permeability of the compound in human Caco-2 cells assessed as compound recovery at 10 uM measured after 2 hrs by LC/MS/MS analysis; assay type: ADME, cell-based; details: read-out: Drug recovery
[3] = Drug metabolism in human liver microsome assessed as reduction of aldehyde group at 10 mM measured after 15 mins in presence of NADPH by LC-MS analysis; assay type: ADME; details: microsomes, 10000 µM
[4] = Aqueous solubility of compound at pH 6.8; assay type: physicochemical; details: buffer, time 15 min
[5] = Lipophilicity, log D of the compound in 1-octanol at pH 7.4 by potentiometric titration method; assay type: physicochemical
[6] = Thermodynamic solubility of compound in phosphate buffer at pH 6.8 measured after 15 mins by shake-flask method based LC-HRMS analysis; assay type: physicochemical; details: read-out: Therm_solubility
[7] = Dose normalized AUC in Crl:CD (SD) rat at 1 mg/kg, iv measured up to 24 hrs by LC-MS/MS analysis; assay type: ADME, organism-based; details: in vivo
[8] = Half-life in Crl:CD (SD) rat at 1 mg/kg, iv or 3 mg/kg, po measured upto 24 hrs by LC-MS/MS analysis; assay type: ADME, organism-based; details: in vivo
[9] = Dose normalized AUC in Crl:CD (SD) rat at 3 mg/kg, po measured up to 24 hrs by LC-MS/MS analysis; assay type: ADME, organism-based; details: in vivo
[10] = Clearance in Crl:CD (SD) rat at 1 mg/kg, iv or 3 mg/kg, po measured up to 24 hrs by LC-MS/MS analysis; assay type: ADME, organism-based; details: in vivo
[11] = Volume of distribution at steady state in Crl:CD (SD) rat at 1 mg/kg, iv or 3 mg/kg, po measured upto 24 hrs by LC-MS/MS analysis; assay type: ADME, organism-based; details: in vivo, read-out: Vdss
[12] = Oral bioavailability in Crl:CD (SD) rat at 3 mg/kg measured upto 24 hrs by LC-MS/MS analysis; assay type: ADME, organism-based; details: Crl:CD (SD), in vivo
[13] = Oral bioavailability in Crl:CD (SD) rat at 3 mg/kg administered as nanosuspension formulated in CMC-5/Tween 80 measured up to 24 hrs by LC-MS/MS analysis; assay type: ADME, organism-based; details: in vivo

Row | Drug metabolism [1] | recovery at 2 h, 10 µM [2] | Drug metabolism [3] | Structure (SMILES) | further results
1 | Metabolite_Detected | < 10% | Metabolite_Detected | N#Cc1cnc(NC(=O)N2CCCc3ccc(C=O)nc32)cn1 | 
2 | Metabolite_Detected | < 10% | Metabolite_Detected | CC(C)Oc1cc(NC(=O)N2CCc3ccc(C=O)nc32)ncc1C#N | 
3 | Metabolite_Detected | < 10% | Metabolite_Detected | COCCNc1cc(NC(=O)N2CCCc3cc(-c4cccnc4)c(C=O)nc32)ncc1C#N | 
4 | Metabolite_Detected | < 10% | Metabolite_Detected | COCCOc1cc(NC(=O)N2CCCc3cc(C(F)F)c(C=O)nc32)ncc1C#N | 
5 | Metabolite_Detected | < 10% | Metabolite_Detected | COCCOc1cc(NC(=O)N2CCCc3ccc(C=O)nc32)ncc1C#N | 
6 | Metabolite_Detected | < 10% | Metabolite_Detected | N#Cc1ccc(NC(=O)N2CCCCc3ccc(C=O)nc32)nc1 | 
7 | Metabolite_Detected | < 10% | Metabolite_Detected | COCCNc1cc(NC(=O)N2CCCc3cc(C4CCOCC4)c(C=O)nc32)ncc1C#N | 
8 | Metabolite_Detected | < 10% | Metabolite_Detected | N#Cc1cnc(NC(=O)N2CCCc3cc(CO)c(C=O)nc32)cc1O[C@H]1CCOC1 | 
9 |  |  |  | CC(=O)N(C)Cc1cc2c(nc1C=O)N(C(=O)Nc1ccc(C#N)cn1)CCC2 | solubility at […] [4]: 18 µM (≈ 7.06 µg/mL)
10 | Metabolite_Detected | < 10% | Metabolite_Detected | O=Cc1ccc2c(n1)N(C(=O)Nc1ccc(C(F)(F)F)cn1)CCC2 | logD [5]: 4.2; solubility thermodynamic at […] [6]: 4.9 µM (≈ 1.72 µg/mL)
11 | Metabolite_Detected | < 10% | Metabolite_Detected | COCCNc1cc(NC(=O)N2CCCc3cc(-c4ccnn4C)c(C=O)nc32)ncc1C#N | 
12 | Metabolite_Detected | < 10% | Metabolite_Detected | N#Cc1ccc(NC(=O)N2CCCc3cc(CC(=O)O)c(C=O)nc32)nc1 | 
13 | Metabolite_Detected | < 10% | Metabolite_Detected | N#Cc1ccc(NC(=O)N2CCCc3cc(CO)c(C=O)nc32)nc1 | 
14 | Metabolite_Detected | < 10% | Metabolite_Detected | CC1(O)CCN(c2cc(NC(=O)N3CCCc4ccc(C=O)nc43)ncc2C#N)CC1 | 
15 | Metabolite_Detected | < 10% | Metabolite_Detected | COCCNc1cc(NC(=O)N2CCCc3cc(C4CCN(C5COC5)CC4)c(C=O)nc32)ncc1C#N | 
16 | Metabolite_Detected | < 10% | Metabolite_Detected | COCCNc1cc(NC(=O)N2CCCc3cc(-c4cnc(C)s4)c(C=O)nc32)ncc1C#N | AUC/dose [7]: 4703 nM·h; solubility at […] [4]: < 4 µM; half-life [8]: 3.5 h; AUC/dose [9]: 2174 nM·h; clearance [10]: 8 mL/min/kg; solubility thermodynamic at […] [6]: < 6 µM; Vd [11]: 1.5 L/kg; bioavailability [12]: 46%
17 | Metabolite_Detected | < 10% | Metabolite_Detected | Cc1cc2c(nc1C=O)N(C(=O)Nc1ccc(C#N)cn1)CCC2 | 
18 | Metabolite_Detected | < 10% | Metabolite_Detected | N#Cc1ccc(NC(=O)N2CCCc3cc(C4CC4)c(C=O)nc32)nc1 | 
19 | Metabolite_Detected | < 10% | Metabolite_Detected | COCCNc1cc(NC(=O)N2CCCc3cc(N4CCOCC4=O)c(C=O)nc32)ncc1C#N | 
20 | Metabolite_Detected | < 10% | Metabolite_Detected | COCCOc1cc(NC(=O)N2CCCc3cc(C(F)(F)F)c(C=O)nc32)ncc1C#N | 
21 | Metabolite_Detected | < 10% | Metabolite_Detected | N#Cc1ccc(NC(=O)N2CCCc3cc(Cl)c(C=O)nc32)nc1 | 
22 | Metabolite_Detected | < 10% | Metabolite_Detected | CN(C)Cc1cc2c(nc1C=O)N(C(=O)Nc1ccc(C#N)cn1)CCC2 | 

Row | Drug metabolism [1] | recovery at 2 h, 10 µM [2] | Drug metabolism [3] | Structure (SMILES) | further results
23 | Metabolite_Detected | < 10% | Metabolite_Detected | CC(C)Oc1cc(NC(=O)N2CCCc3ccc(C=O)nc32)ncc1C#N | 
24 | Metabolite_Detected | < 10% | Metabolite_Detected | COCCOc1cc(NC(=O)N2CCCc3cc(COC)c(C=O)nc32)ncc1C#N | 
25 | Metabolite_Detected | < 10% | Metabolite_Detected | O=Cc1ccc2c(n1)N(C(=O)Nc1ccc(C(F)(F)F)cn1)CCO2 | 
26 | Metabolite_Detected | < 10% | Metabolite_Detected | COCCOc1cc(NC(=O)N2CCCc3cc(CO)c(C=O)nc32)ncc1C#N | half-life [8]: 2 h; AUC/dose [9]: 194 nM·h; clearance [10]: 52 mL/min/kg; solubility thermodynamic at […] [6]: 11 µM (≈ 4.53 µg/mL); Vd [11]: 2.5 L/kg; bioavailability [12]: 24%
27 | Metabolite_Detected | < 10% | Metabolite_Detected | N#Cc1cnc(NC(=O)N2CCCc3cc(CO)c(C=O)nc32)cc1O[C@@H]1CCOC1 | 
28 |  |  |  | O=Cc1ccc2cccc(C(=O)Nc3ccc(C(F)(F)F)cn3)c2n1 | solubility thermodynamic at […] [6]: < 2.9 µM
29 | Metabolite_Detected | < 10% | Metabolite_Detected | CC(C)COc1cc(N2CCC(N(C)C)CC2)ccc1Nc1ncc(C#N)c(N[C@H]2[C@@H](C(N)=O)[C@@H]3C=C[C@H]2C3)n1 | 
30 | Metabolite_Detected | < 10% | Metabolite_Detected | COCCNc1cc(NC(=O)N(CCOC)c2cccc(C=O)n2)ncc1C#N | 
31 | Metabolite_Detected | < 10% | Metabolite_Detected | C=CC(=O)Nc1ccccc1C(=O)Nc1cc(CCc2cc(OC)cc(OC)c2)[nH]n1 | 
32 | Metabolite_Detected | < 10% | Metabolite_Detected | COCCNc1cc(NC(=O)N(C)c2cccc(C=O)n2)ncc1C#N | 
33 | Metabolite_Detected | < 10% | Metabolite_Detected | COCCNc1cc(NC(=O)N2CCCc3cc(C(F)F)c(C=O)nc32)ncc1C#N | AUC/dose [7]: 964 nM·h; half-life [8]: 2.3 h; AUC/dose [9]: 774 nM·h; clearance [10]: 40 mL/min/kg; solubility thermodynamic at […] [6]: < 6 µM; Vd [11]: 4.7 L/kg; bioavailability [12]: 7%; bioavailability [13]: 80%
34 | Metabolite_Detected | < 10% | Metabolite_Detected | N#Cc1ccc(NC(=O)N2CCCc3cc(N)c(C=O)nc32)nc1 | 
35 | Metabolite_Detected | < 10% | Metabolite_Detected | O=Cc1nc2c(C(=O)Nc3ccc(C(F)(F)F)cn3)cccc2cc1O | 
36 |  |  |  | COC[C@@H](C)Nc1cc(NC(=O)N2CCCc3cc(CN4CCN(C)CC4=O)c(C=O)nc32)ncc1C#N | clearance [10]: 35 mL/min/kg
37 |  |  |  | COCCNc1cc(NC(=O)N2CCCc3cc(CN(C)C(C)=O)c(C=O)nc32)ncc1C#N | AUC/dose [7]: 2307 nM·h; half-life [8]: 27.7 h; AUC/dose [9]: 599 nM·h; clearance [10]: 16 mL/min/kg; solubility thermodynamic at […] [6]: 8 µM (≈ 3.72 µg/mL); Vd [11]: 8.6 L/kg; bioavailability [12]: 26%
38 | Metabolite_Detected | < 10% | Metabolite_Detected | COc1cc2c(nc1C=O)N(C(=O)Nc1ccc(C#N)cn1)CCC2 | 
39 | Metabolite_Detected | < 10% | Metabolite_Detected | COCCNc1cc(NC(=O)N2CCCc3cc(-n4cnc(C)c4)c(C=O)nc32)ncc1C#N | solubility at […] [4]: < 4 µM
40 | Metabolite_Detected | < 10% | Metabolite_Detected | COCCOc1cc(NC(=O)N2CCCc3cc(Br)c(C=O)nc32)ncc1C#N | 
41 |  |  |  | COC[C@H](C)Nc1cc(NC(=O)N2CCCc3cc(CN4CCN(C)CC4=O)c(C=O)nc32)ncc1C#N | clearance [10]: 19 mL/min/kg
42 |  |  |  | COCCNc1cc(NC(=O)N(C)c2ccc(CN3CCN(C)CC3=O)c(C=O)n2)ncc1C#N | clearance [10]: 88 mL/min/kg
43 | Metabolite_Detected | < 10% | Metabolite_Detected | CCN1CCN(c2ccc(Nc3cc(N(C)C(=O)Nc4c(Cl)c(OC)cc(OC)c4Cl)ncn3)cc2)CC1 [INFIGRATINIB] | 
